# From patent US5614408A, “Monoclonal antibodies to potato, tomato, and eggplant glycoalkaloids and assays for the same” (priority 1995, dated 1997)
# Entries after “also recorded” stand apart in the source; their conditions may differ.
# Tests used:
# Type in all cases: binding, mouse
# [1] = system: monoclonal antibody Sol-8; experiment: competitive inhibition ELISA (c-ELISA), monoclonal antibody Sol-8; conditions: Sol-8 (IgG2a); ± one standard deviation
# Protocol: (§1) Five, 6 month old BALB/c mice were injected with 50 μl of the solanidine-KLH conjugate mixed 1:1 with Ribi adjuvant (Ribi Immunochem Research Inc., Hamilton, Mont.). The mice received half the dose intraperitoneally and half intramuscularly every other week for a total of three injections. One month later, and 4 days prior to fusion, a selected mouse was given an intraperitoneal injection of 50 μl of solanidine-KLHconjugate in sterile saline. The spleen was removed and the splenocytes fused with SP2/O myeloma cells as described by Stanker et al. (1986, J. Immunol., 136:4174-4180), the contents of which are incorporated by reference herein. The fused cells were plated over 30 96-well microculture plates previously coated with mouse peritoneal exudate cells (macrophage) and grown under conditions described by Elissalde et al. (1993, J. Agric. Food Chem., 41:2167-2171), the contents of which are also incorporated by reference herein.
# (§2) db-ELISA. A modification of a direct-binding ELISA described by Stanker et al. (1993, J. Agric. Food Chem., 41:1332-1336), the contents of which are incorporated by reference herein, was used to screen the culture fluids from the growing hybridomas for antibodies to solanidine. Microtiter plates (Nunc Maxisorb, Roskilde, Denmark; or Costar high binding plates, Costar Corp., Wilmington, Mass.) were coated with SOL-BSA by addition of 100 μl/well of a 1 μg/ml solution of SOL-BSA in distilled water. The SOL-BSA was incubated in uncovered plates at 37° C. for 18 hr to evaporate the liquid and allow the SOL-BSA to coat the bottom of the microtiter wells. The "coated" plates were then stored in sealed plastic bags at 4° C. and used within 2 weeks. Nonreacted sites on the plates were blocked by adding 400 μl of a 3% solution of nonfat dry milk (NFDM) in assay buffer (0.1M Tris, 0.15M NaCl, 10 mg/ml nonfat dry milk, 0.001% Tween 20, 0.02% sodium azide) and incubating the plates at room temperature for 1 hr. The blocking solution was then discarded and 100 μl of the hybridoma supernatant(s) or anti-solanidine Mab (from ascites fluid) was added, and the plates incubated for 1 hr at 37° C. After incubation, the plates were washed with a solution of 0.05% TWEEN-20 in water, and peroxidase conjugated goat anti-mouse antiserum (Sigma Inc., St. Louis, Mo.), diluted 1:500 in assay buffer, was then added to each well. Following a second 1 hr incubation at 37° C., the plates were washed as described above. Finally, the substrate, 2,2'-azino-bis(ethylbenzthiazole-6-sulfonic acid) (ABTS), was added. Absorbance was measured at 405 nm and the resulting data analyzed by computer using an Excel (Microsoft, Redmond, Wash.) spreadsheet program.
# (§3) c-ELISA. The competitive inhibition ELISA for solanidine and other glycoalkaloids was carried out as previously described for other compounds by Stanker et al. (1993, ibid). Briefly, to each well of an antigen (glycoalkaloid or aglycone) coated, non-fat-milk-blocked, microtiter plate prepared as described in the db-ELISA was added 100 μl of assay buffer. Competitors (free solanidine and other glycoalkaloids and aglycones, and four structurally related steroids cholesterol, digitonin, βsitosterol, and stigmasterol, shown in Table 1) dissolved in 100 μl of assay buffer were added to the microassay plate and serially diluted (a 2-fold series). Next, 100 μl of assay buffer containing a predetermined amount of anti-solanidine monoclonal antibody prepared above was added to each well. The amount of anti-alkaloid antibody added was the concentration (dilution from tissue culture supernatant) resulting in approximately 50% of maximum binding or signal in a direct-binding ELISA where no competitor was present. The plates were sealed with plastic wrap, incubated for 1 hr at 37° C., and then processed as described in the db-ELISA to detect bound antibody. […]
# [2] = system: monoclonal antibody Sol-48; experiment: competitive inhibition ELISA (c-ELISA), monoclonal antibody Sol-48; conditions: Sol-48 (IgG2a); ± one standard deviation
# Protocol: as §1, §2, §3
# [3] = system: monoclonal antibody Sol-59; experiment: competitive inhibition ELISA (c-ELISA), monoclonal antibody Sol-59; conditions: Sol-59 (IgG2a); ± one standard deviation
# Protocol: as §1, §2, §3
# [4] = system: monoclonal antibody Sol-71; experiment: competitive inhibition ELISA (c-ELISA), monoclonal antibody Sol-71; conditions: Sol-71 (IgG2a); ± one standard deviation
# Protocol: as §1, §2, §3
# [5] = system: monoclonal antibody Sol-129; experiment: competitive inhibition ELISA (c-ELISA), monoclonal antibody Sol-129; conditions: for IC50: Sol-129 (IgG1), ± one standard deviation; for binding by Sol-129 / relative affinity of Sol-129: in words
# Protocol: as §1, §2, §3
# [6] = system: monoclonal antibody Sol-91; experiment: competitive inhibition ELISA (c-ELISA), monoclonal antibody Sol-91; conditions: Sol-91 (IgG2a); ± one standard deviation
# Protocol: as §1, §2, §3
# [7] = system: monoclonal antibody Sol-54; experiment: competitive inhibition ELISA (c-ELISA), monoclonal antibody Sol-54; conditions: Sol-54 (IgG2a); ± one standard deviation
# Protocol: as §1, §2, §3
# [8] = system: monoclonal antibody Sol-68; experiment: competitive inhibition ELISA (c-ELISA), monoclonal antibody Sol-68; conditions: Sol-68 (IgG1); ± one standard deviation
# Protocol: as §1, §2, §3
# [9] = system: monoclonal antibody Sol-106; experiment: competitive inhibition ELISA (c-ELISA), monoclonal antibody Sol-106; conditions: Sol-106 (IgG2a); ± one standard deviation
# Protocol: as §1, §2, §3
# [10] = system: monoclonal antibody Sol-55; experiment: competitive inhibition ELISA (c-ELISA), monoclonal antibody Sol-55; conditions: Sol-55 (IgG2a); ± one standard deviation
# Protocol: as §1, §2, §3
# [11] = system: monoclonal antibody Sol-67; experiment: competitive inhibition ELISA (c-ELISA), monoclonal antibody Sol-67; conditions: Sol-67 (IgG1); ± one standard deviation
# Protocol: as §1, §2, §3
# [12] = system: eleven monoclonal antibodies; experiment: competitive inhibition ELISA (c-ELISA), all eleven monoclonal antibodies; conditions: in words
# Protocol: as §1, §2
# c-ELISA. […]
SMILES,IC50 [1],IC50 [2],IC50 [3],IC50 [4],IC50 [5],binding by Sol-129 [5],relative affinity of Sol-129 [5],IC50 [6],IC50 [7],IC50 [8],IC50 [9],IC50 [10],IC50 [11],cross-reaction of the antibodies [12]
C[C@@H]1CC[C@@]2(NC1)O[C@H]1C[C@H]3[C@@H]4CC=C5C[C@@H](O[C@@H]6O[C@H](CO)[C@H](O)[C@H](O[C@@H]7O[C@H](CO)[C@@H](O)[C@H](O)[C@H]7O)[C@H]6O[C@@H]6O[C@@H](C)[C@H](O)[C@@H](O)[C@H]6O)CC[C@]5(C)[C@H]4CC[C@]3(C)[C@H]1[C@@H]2C [solasonine],"nc (no competition at 10,000 ppb)","nc (no competition at 10,000 ppb)","nc (no competition at 10,000 ppb)","nc (no competition at 10,000 ppb)",36 ± 3.2 ppb,Sol-129 was the only antibody capable of binding,high affinity,"nc (no competition at 10,000 ppb)","nc (no competition at 10,000 ppb)","nc (no competition at 10,000 ppb)","nc (no competition at 10,000 ppb)","nc (no competition at 10,000 ppb)","nc (no competition at 10,000 ppb)",
C[C@H]1CC[C@@H]2[C@@H](C)[C@H]3[C@H](C[C@H]4[C@@H]5CC=C6C[C@@H](O[C@@H]7O[C@H](CO)[C@H](O[C@@H]8O[C@@H](C)[C@H](O)[C@@H](O)[C@H]8O)[C@H](O)[C@@H]7O[C@@H]7O[C@@H](C)[C@@H](O)[C@@H](O)[C@H]7O)CC[C@]6(C)[C@H]5CC[C@]34C)N2C1 [α-chaconine],294 ± 34 ppb,323 ± 125 ppb,25 ± 2.1 ppb,"nc (no competition at 10,000 ppb)",2.8 ± 0.2 ppb,,high affinity,82 ± 5.2 ppb,165 ± 58 ppb,"nc (no competition at 10,000 ppb)",54 ± 13 ppb,204 ± 19 ppb,20.2 ppb,
CC(C)CCC[C@@H](C)[C@H]1CC[C@H]2[C@@H]3CC=C4C[C@@H](O)CC[C@]4(C)[C@H]3CC[C@]12C [cholesterol],"nc (no competition at 10,000 ppb)",,"nc (no competition at 10,000 ppb)","nc (no competition at 10,000 ppb)","nc (no competition at 10,000 ppb)",,,"nc (no competition at 10,000 ppb)","nc (no competition at 10,000 ppb)","nc (no competition at 10,000 ppb)","nc (no competition at 10,000 ppb)","nc (no competition at 10,000 ppb)","nc (no competition at 10,000 ppb)",None of the eleven antibodies cross-reacted
C[C@H]1CC[C@]2(NC1)O[C@H]1C[C@H]3[C@@H]4CC[C@H]5C[C@@H](O)CC[C@]5(C)[C@H]4CC[C@]3(C)[C@H]1[C@@H]2C [tomatidine],"nc (no competition at 10,000 ppb)","nc (no competition at 10,000 ppb)","nc (no competition at 10,000 ppb)","nc (no competition at 10,000 ppb)",10.4 ± 2.0 ppb,specifically bound; also recorded: Sol-129 was the only antibody capable of binding,,"nc (no competition at 10,000 ppb)","nc (no competition at 10,000 ppb)","nc (no competition at 10,000 ppb)","nc (no competition at 10,000 ppb)","nc (no competition at 10,000 ppb)","nc (no competition at 10,000 ppb)",
C[C@H]1CC[C@@H]2[C@@H](C)[C@H]3[C@H](C[C@H]4[C@@H]5CC=C6C[C@@H](O)CC[C@]6(C)[C@H]5CC[C@]34C)N2C1 [solanidine],46 ± 6.4 ppb,18 ± 4.4 ppb,16 ± 1.7 ppb,1020 ppb,2.5 ± 0.35 ppb,,high affinity; also recorded: lowest relative affinity,36 ± 5.7 ppb,131 ± 53 ppb,489 ppb,14 ppb,60 ± 19 ppb,15.6 ppb,
C[C@H]1CC[C@@H]2[C@@H](C)[C@H]3[C@H](C[C@H]4[C@@H]5CC=C6C[C@@H](O[C@@H]7O[C@H](CO)[C@H](O)[C@H](O[C@@H]8O[C@H](CO)[C@@H](O)[C@H](O)[C@H]8O)[C@H]7O[C@@H]7O[C@@H](C)[C@H](O)[C@@H](O)[C@H]7O)CC[C@]6(C)[C@H]5CC[C@]34C)N2C1 [α-solanine],253 ± 64 ppb,436 ± 135 ppb,35 ± 8 ppb,"nc (no competition at 10,000 ppb)",2.6 ± 0.25 ppb,,high affinity,104 ± 18 ppb,215 ± 32 ppb,"nc (no competition at 10,000 ppb)",49 ± 8 ppb,118 ± 18 ppb,27.8 ppb,
C[C@H]1CC[C@]2(NC1)O[C@H]1C[C@H]3[C@@H]4CC[C@H]5C[C@@H](O[C@@H]6O[C@H](CO)[C@H](O[C@@H]7O[C@H](CO)[C@@H](O)[C@H](O[C@@H]8OC[C@@H](O)[C@H](O)[C@H]8O)[C@H]7O[C@@H]7O[C@H](CO)[C@@H](O)[C@H](O)[C@H]7O)[C@H](O)[C@H]6O)CC[C@]5(C)[C@H]4CC[C@]3(C)[C@H]1[C@@H]2C [α-tomatine],"nc (no competition at 10,000 ppb)","nc (no competition at 10,000 ppb)","nc (no competition at 10,000 ppb)","nc (no competition at 10,000 ppb)",5.4 ± 3.5 ppb,specifically bound; also recorded: Sol-129 was the only antibody capable of binding,approximately the same affinity as the potato glycoalkaloids,"nc (no competition at 10,000 ppb)","nc (no competition at 10,000 ppb)","nc (no competition at 10,000 ppb)","nc (no competition at 10,000 ppb)","nc (no competition at 10,000 ppb)","nc (no competition at 10,000 ppb)",
C[C@@H]1CC[C@@]2(NC1)O[C@H]1C[C@H]3[C@@H]4CC=C5C[C@@H](O)CC[C@]5(C)[C@H]4CC[C@]3(C)[C@H]1[C@@H]2C [solasodine],,,,,,binds,,,,,,,,
